In patent publication US11234945B2, “Wound healing composition” (AGENCY FOR SCIENCE, TECHNOLOGY AND RESEARCH, priority 2016, dated 2022):
“Also recorded” adds a separate entry of the source.

Tests used:
[1] = test system: AMD1; assay: AMD1 up-regulation post scratch (immunofluorescence, western blot); assay type: cell-based, human; details: combined pre-treatment: 1 μM Tg 24 hours and 2 mM EGTA 1 hour; 6 hours post scratch
Protocol: (§1) It was then sought to determine if the up-regulation of AMD1 at the wound-edge was dependent on the wound-induced calcium wave. Human keratinocytes were labelled with the Ca^2+ probe Fluo-4 for 30 minutes prior to scratching to mimic a wound response. […] To assess the impact of a reduced calcium wave on up-regulation of AMD1, cells were pre-treated for 24 hours with 1 μM thapsigargin (Tg) and for 1 hour with 2 mM EGTA prior to scratch to deplete internal calcium stores and extracellular calcium, respectively.
(§2) Keratinocytes were seeded in glass-bottom 35-mm^2 dishes and cultured to full confluency in cell culture media. To deplete intracellular and extracellular Ca^2+ sources, cells were treated with 1 μM thapsigargin (Tg) (Sigma-Aldrich) for 24 hours and 2 mM ethylene glycol tetraacetic acid (EGTA, Sigma-Aldrich) for 1 hour prior to scratch. For Ca^2+ flux imaging, cells were incubated with Fluo-4,AM (Life Technologies; Thermo Fisher Scientific) and imaged with an automated confocal microscope (Spinning disk 3D-FRAP; Nikon Ti) at 0.2 second intervals for 5 minutes. Image analysis was performed using ImageJ software.

[2] = test system: scratch-induced calcium wave in keratinocytes; assay: Calcium wave imaging after scratch (Fluo-4); assay type: cell-based, human; details: combined pre-treatment: 1 μM Tg 24 hours and 2 mM EGTA 1 hour prior to scratch
Protocol: as §1, §2

[3] = test system: human ex vivo wounds; assay: Human ex vivo excisional skin wounds, epithelial tongue length; assay type: cell-based; details: 500 μM topically every 24 hours for 3 days; examined after 72 hours; PBS control
Source text: Human skin samples were sourced from Dr T. C. Lim at the Yong Loo Lin School of Medicine, National University of Singapore. Written consent from participants was obtained in all cases. The study was done in accordance with the declaration of Helsinki and was approved by a local scientific ethics review board. The skin was further dissected into 6-mm cubes or circles. Excisional skin wounds of approximately 3 to 4 mm were made with surgical scissors. The ex vivo wounded skin explants were cultured at the air-liquid interface and treated topically with 500 μM of putrescine, spermidine, spermine or 1× phosphate-buffered saline (PBS) every 24 hours for 3 days. Non-wounded skin, day 0- and day 3-wounded biopsies were bisected, with half snap-frozen in Optimal Cutting Temperature Compound (OCT) and the other half fixed in 10% buffered formalin saline and embedded in paraffin for histological analysis.
Histological sections were prepared from wound tissue embedded in paraffin or snap-frozen in OCT. […] Images were acquired using a fluorescence microscope (Zeiss AxioImager Z1; Carl Zeiss). […]

[4] = test system: N/TERT-1 keratinocytes; assay: In vitro scratch cell migration assay; assay type: cell-based, human; details: for cell migration / closure of scratch wound: control keratinocytes, 5 μM added 48 h prior to scratch, Incucyte wound width
Protocol: (§3) Human immortalized keratinocytes (Dickson et al., 2000), N/TERT-1 were obtained and cultured in keratinocyte serum-free media (K-SFM; Life Technologies; Thermo Fisher Scientific) supplemented with 25 μg/ml bovine pituitary extract (BPE), 0.2 ng/ml epidermal growth factor (EGF), and 0.3 mM CaCl2, as previously described (Rheinwald et al., 2002). To culture cells to 100% confluence for scratch assays, N/TERT-1 cells were first cultured to 50% confluence in supplemented K-SFM growth medium and then switched to a media with a 1:1 ratio mixture of supplemented K-SFM and DF-K (a mixture of calcium free, glutamine free DMEM (Hyclone; GE Healthcare) with Ham's F-12/GlutaMAX (Gibco; Life Technologies; Thermo Fisher Scientific) at 1:1 (vol/vol) supplemented with 5 μg/ml BPE, 0.2 ng/ml EGF, and 1.5 mM L-glutamine (Life Technologies; Thermo Fisher Scientific)) until 100% confluent. Human HEK293T cells (Dharmacon; GE Healthcare) were used for lentiviral production as the packaging cell line and cultured in high glucose DMEM (Hyclone; GE Healthcare) with 10% fetal calf serum. All cells were grown in a humidified incubator with 5% CO2 at 37° C.
In Vitro Scratch Cell Migration Assay
Confluent keratinocytes on ImageLock 96-well microplates (Essen BioScience, Inc) were scratched using a 96-pin wound maker (Essen BioScience, Inc) to create homogeneous, 700-800-μm wide scratch wounds in cell monolayers. Scratched cells were imaged using a real-time cell imaging system, IncuCyte, (Essen BioScience, Inc) to monitor cell migration. Putrescine, spermidine, or spermine (5 μM, Sigma-Aldrich) were added to cells and incubated for 48 h prior to scratch. For analysis of protein and RNA expression in migrating cells, keratinocytes were cultured to full confluency in a 6-well culture dish (Corning Costar) and scratched with the large end of a 1-mL pipette tip. At specific time points, the cells were either harvested in lysis buffer (150 mM sodium chloride, 1% (v/v) Triton X-100, 0.5% sodium deoxycholate, 1% (v/v) sodium dodecyl sulfate, 50 mM Tris-HCl, 1% (v/v) Nonidet P-40 (NP-40), 0.1 mM phenylmethylsulfonyl fluoride (PMSF), 5 mM EDTA, and 1% (v/v) protease and phosphatase inhibitor cocktail) for western blot or Trizol reagent (Life Technologies; Thermo Fisher Scientific) for RNA analysis.

[5] = test system: intestinal epithelial cell; details: rodents, cited from earlier work
[6] = test system: sh-AMD1 keratinocytes; details: supplementation in cell culture media, listed as Spermine
Protocol: as §3
Confluent keratinocytes on ImageLock 96-well microplates (Essen BioScience, Inc) were scratched using a 96-pin wound maker (Essen BioScience, Inc) to create homogeneous, 700-800-μm wide scratch wounds in cell monolayers. […]

O=C(O)CN(CCN(CC(=O)O)CC(=O)O)CC(=O)O [EDTA]
AMD1 up-regulation in scratched cells [1]: completely abrogates AMD1 protein up-regulation

C/C=C(/C)C(=O)O[C@H]1C(C)=C2[C@H]([C@@H]1OC(=O)CCCCCCC)[C@@](C)(OC(C)=O)C[C@H](OC(=O)CCC)[C@@]1(O)[C@H]2OC(=O)[C@@]1(C)O [thapsigargin]
propagation of calcium wave upon scratch [2]: effectively prevented the calcium wave
AMD1 up-regulation in scratched cells [1]: completely abrogated; also recorded: completely abrogates AMD1 protein up-regulation

NCCCCNCCCN [spermidine, 1,4-butanediamine, N-(3-aminopropyl)]
epithelial tongue migration / wound repair [3]: promoted a striking improvement in epithelial tongue migration; also recorded: promote wound repair of excisional human skin wounds

CCC(/C=N/N=C(N)N)=N\N=C(N)N [EGBG, reference compound]
cell migration after AMD1 inhibitor ([4]; data not shown, concentration not given): resulted in a similar delay in cell migration

NCCCCN [putrescine, butane-1,4-diamine, reference compound]
rescue of DFMO effect on intestinal epithelial cell migration and proliferation ([5]; supplementation after DFMO): can be rescued through supplementation with putrescine
cell migration / closure of scratch wound [4]: significantly impedes cell migration
cell migration / closure of scratch wound ([4]; listed as Putrescine): caused an inhibition of keratinocyte migration and a delay in closure of the scratch wound

O=C(O)CN(CCOCCOCCN(CC(=O)O)CC(=O)O)CC(=O)O [EGTA, ethylene glycol tetraacetic acid]
propagation of calcium wave upon scratch [2]: effectively prevented the calcium wave
AMD1 up-regulation in scratched cells [1]: completely abrogated

NCCCNCCCCNCCCN [spermine, 1,4-butanediamine, N,N′-bis(3-aminopropyl)]
restoration of impaired cell migration in AMD1-knockdown keratinocytes [6]: restores impaired cell migration in sh-AMD1 keratinocytes
cell migration / closure of scratch wound [4]: promoted scratch wound closure in the control cells; also recorded: sufficient to drive increased cell migration
cell migration / closure of scratch wound ([4]; listed as Spermine): promotes the closure of scratch wounds in keratinocytes
rescue of EGBG-induced delay in cell migration ([4]; keratinocytes treated with EGBG, data not shown): similarly rescued by the addition of spermine
epithelial tongue migration / wound repair [3]: promoted a striking improvement in epithelial tongue migration; also recorded: promote wound repair of excisional human skin wounds

NCCCC(N)(C(=O)O)C(F)F (racemic) [DFMO, (RS)-2,5-diamino-2-(difluoromethyl)pentanoic acid]
intestinal epithelial cell migration and proliferation ([5]; ODC1 inhibition): prevents intestinal epithelial cell migration and proliferation
